Values quoted from earlier work in US20220226500A1, “FULLERENIC ELLAGIC LUTEOLIN AND METHODS” (Sinapu LLC, priority 2021, published 2022).

How the values were obtained:
[1] = human body
[2] = in water

- time in which more than half of the absorbed blood plasma level is broken down [1]: within one hour
- solubility [2]: 0.0097 grams per liter of water
Structure (SMILES): O=c1oc2c(O)c(O)cc3c(=O)oc4c(O)c(O)cc1c4c23 [ellagic acid]
